This note sets out measurements from article PMC5675611, “GZD824 suppresses the growth of human B cell precursor acute lymphoblastic leukemia cells by inhibiting the SRC kinase and PI3K/AKT pathways” (Oncotarget, 2016).

The test system of assay [1] is STAT3 target genes (BCL-XL, CCND1, CDK4, CDKN1A). Put plainly: qRT-PCR of STAT3 target genes. It counts as cell-based, human. The following applies: 3 μM, 24 hours, normalized to GAPDH, vs control. As to the method:
Figure 5 GZD824 inhibits the SRC kinase in pre-B ALL cells A-C. Western blot analysis of […]-treated NALM6 cells. Cells were treated with DMSO, GZD824 (1μM), or GZD824 (3μM) for 24 hours. Lysates were analyzed with antibodies to (A) phospho-SRC and SRC; (B) phospho-STAT3 and STAT3; and (C) phospho-Rb, Rb, and C-Myc. D. qRT-PCR products of BCL-XL, CCND1, CDK4, and CCK[…] mRNA were normalized to GAPDH and presented as fold increase or decrease compared to control, 24 hours after treatment with 3 μM GZD824. E. NALM6 cells were treated with GZD824, SRC inhibitor (KX2-391), STAT3 inhibitor (HO-3867), or DMSO for 24 hours. Statistical analysis of Annexin V-positive cells in 3μM of drug treated NALM6 cells. All data from independent experiments are presented as mean ± SEM. Significance values: ^*P<0.05; ^**P<0.01; ^***P<0.001. RNA was extracted using TRIzol reagent (15596-026, Invitrogen, Grand Island, NY, USA), according to the manufacturer's recommended protocol. qRT-PCR was performed using Applied Biosystems StepOne and StepOne Plus Real-Time PCR Systems (Foster City, CA, USA). The experiments were repeated a minimum of three times to confirm the results.
(Quantitative PCR measures a nucleic acid by following its amplification.)

In another assay the test system is NALM6. The assay can be described thus: CCK8 viability / proliferation assay. It counts as cell-based. The following applies: Homo sapiens, NALM-6, 24 h, read-out: IC50, inhibition of proliferation. As to the method:
(§1) Viability was calculated relative to time-matched untreated controls. D824 is short for GZD824 in the following figure. B. Left: representative flow cytometric analysis of NALM6 and SUPB15 cells treated with DMSO, 1μM, or 3μM of GZD824 for 24 hours. Right: Statistical analysis of AnnexinV-positive cells in GZD824 treated NALM6 and SUPB15 cells. C. Left: representative images of cell cycle distribution in NALM6 and SUPB15 cells treated with DMSO or 3μM of GZD824 for 24 hours. Right: Statistical analysis of the distribution of cells in G0/G1 phases in GZD824 treated cells. Data are shown as the mean ± SEM (error bars) from three independent experiments. Significance values: ^*P<0.05; ^**P<0.01; ^***P<0.001. […] For each plot they are listed in the order upper left, upper right, lower left, lower right.

Another assay has as its system SUPB15. The assay can be described thus: CCK8 viability / proliferation assay. It counts as cell-based. The following applies: Homo sapiens, SUP-B15, 24 h, read-out: IC50, inhibition of proliferation. As to the method: as §1
For a further assay, the system named is NALM6 cells. The assay can be described thus: Cell-cycle analysis (PI staining, flow cytometry). The class given is cell-based, human. As to the method: Human pre-B ALL cell lines NALM6 and SUPB15 were purchased from American Type Culture Collection (ATCC, Maryland, USA). All pre-B ALL cell lines were maintained in cell culture media and conditions as recommended by the ATCC. Cells were treated with GZD824 for 24 hours. GZD824 (3μM, 1μM, or 0.5μM) was used in the experiments unless otherwise noted. NALM6 and SUPB15 cells were maintained in RPMI-1640 medium (Gibco, New York, NY, USA) with 10% fetal bovine serum (Biochrom, Melbourne, Australia). Cell cycle analysis was performed by flow cytometry after propidium iodide (PI) staining as described. Approximately 2 × 10^6 cells were suspended in 0.5 ml of phosphate-buffered saline (PBS) and vortexed with 3 ml of 80% ethanol. Cells were fixed at 4°C for 1 hr, washed with PBS, re-suspended in PBS, and vortexed vigorously. Cells were re-suspended in 1 ml of PBS containing 50 μg/ml of DNase-free RNase A (EN0531, Thermo Fisher scientific, Waltham, USA) and 50 μg/ml of propidium iodide PI (P4170, Sigma Aldrich, St. Louis, MO, USA). Cells were stained for at least 1 hr at room temperature in the dark. Stained cells were then subjected to flow cytometric analysis by an Accuri™ C6 (BD Biosciences, CA, USA).
In general terms: In flow cytometry, cells or beads pass a laser one at a time.

Regarding `Cc1ccc(C(=O)Nc2ccc(CN3CCN(C)CC3)c(C(F)(F)F)c2)cc1C#Cc1cnc2[nH]ncc2c1` [GZD824], in assay [1], the “BCL-XL mRNA expression” value is reported as “downregulation”, the “CCKN1A (CDKN1A) mRNA expression” value is “upregulated”, the “CCND1 mRNA expression” value is given as “downregulation” and the “CDK4 mRNA expression” value is reported as “downregulation”. For the same compound, the IC50 with NALM6 worked out at 0.5 µM. In addition, the IC50 in the assay with SUPB15 is above 0.5 µM. Moreover, in the assay with NALM6 cells (NALM6, 500 nM), the “proportions of the G0/G1 fraction” value is reported as “increased”. Moreover, in the assay with NALM6 cells (NALM6, 3μM, 24 hours), the “percentage of the G0/G1 fraction” value is 71.6%.
